“Also recorded” adds a separate entry of the source. Where two headings read alike, the source gives them in different places.
Key:
[1] = test system: frataxin deficient fibroblasts (Friedreich's ataxia patient, GM03665); type: cell-based
[2] = test system: intact HepG2 cells; assay: Rotenone Oxygraph Assay (high-resolution respirometry); type: cell-based, human
Protocol: The Oxygraph-2k (O2k, OROBOROS INSTRUMENTS, Austria) was used for measurements of respiration of intact cells. The respirometry was performed in Dulbecco's Modified Eagle Medium (DMEM) high glucose without supplements. All experiments were performed at 37° C.
HepG2 cells (ATCC collection code HB-8065™) were cultured in 10 cm^2 culture dishes in DMEM high glucose medium supplemented with 10% fetal bovine serum (FBS) and 100 units/mL penicillin and 100 μg/mL streptomycin until approximately 90% confluence was reached. Immediately prior to performing the respirometric assay, the cells were washed with media without FBS, trypsinized and resuspended in DMEM high glucose without FBS.
The final concentration of intact cells in the O2k-chamber was 0.5.10^6/mL. After stabilization of respiration, the Complex I inhibitor, rotenone, at 1 μM final concentration was added to inhibit electron flux via Complex I. Then, compound to be tested was added at 10 μM final concentration, and the change in respiration rate of intact cells was monitored.

[3] = test system: HepG2 human hepatocarcinoma cells; assay: Rotenone ATP Assay (Complex I by-pass); type: cell-based; details: for Complex I by-pass activity / restoring ATP production, in words: summary statements also cover the Oxygraph assay
Protocol: This assay has been adapted from Haefeli R H, Erb M, Gemperli A C, Robay D, Courdier Fruh I, et al. (2011) NQO1-Dependent Redox Cycling of Idebenone: Effects on Cellular Redox Potential and Energy Levels. PLOS ONE 6 (3): e17963. HepG2 human hepatocarcinoma cells were co-incubated with the electron transport chain Complex I toxin rotenone+/−compounds of interest and the corresponding effect on ATP synthesis was measured with a bioluminescent substrate.
In brief, HepG2 cells were plated at 25,000 cells per well in low glucose (1 gram/Liter) DMEM medium+10% fetal calf serum and incubated for 24 hours. The following day, the media was decanted and subsequently replaced with glucose free/serum free DMEM which has been supplemented with 50 micromolar rotenone and compound of interest. Serial dilutions of compound were prepared in 3× dilutions beginning at 25 micromolar. The cells were incubated for 60 minutes in a humidified tissue culture incubator. Following incubation, ATP levels were quantified via bioluminescent assay (Promega […] Glo Assay kit) and readings were captured on a standard microplate reader.
ATP bioluminescence is plotted versus the log of compound of interest and data were used to generate EC50 values. Curve fitting was performed using a sigmoidal dose response curve fit function (GraphPad Prism software).
Robustness of curve fit was assessed as a quality control measure, with an R squared value of at least 0.80 being required for a successful curve fit. Compounds of interest showing an increase in ATP bioluminescence relative to vehicle control were verified in an independent biological replicate of n=3 technical replicates per dose.
This assay is a direct measure of the ability of compounds of interest to restore ATP production under conditions of inhibition of Complex I of the mitochondrial electron transport chain. As the majority of ATP produced via the electron transport chain is thought to derive from Complex I activity, significant impairment in Complex I function has dire biological consequences. Of note, Complex I mutations are thought to drive pathophysiology in multiple mitochondrial diseases, including Leigh syndrome and Leber's Hereditary Optic Neuropathy (LHON), while diminished Complex I activity and the resultant attenuation of ATP production has been shown in neurodegenerative diseases, including Friedreich's Ataxia, Parkinson's Disease and Huntington's Disease.

[4] = target: lipoxygenase-15 enzyme (Glycine max (Soybean) (Glycine hispida), UniProt P08170); assay: Lipoxygenase-15 Assay (LO-15 Assay); type: biochemical; details: reduced forms tested
[5] = test system: GM03665 cells (fibroblasts from a subject with Friedreich's ataxia); assay: RSL3 Toxicity Assay (RSL3 Assay); type: cell-based, human; details: for EC50: Homo sapiens, Fibroblast
Protocol: In brief, GM03665 cells (Coriell Institute) were seeded in 96-well plates (Sarstedt) in DMEM cell culture media containing 10% Fetal Bovine serum and 1% Penicillin-Streptomycin (Pen-Strep) antibiotic mix at the amount of 2×10^4/mL (100 μL or 2×10^3 cells per well). Cells were left to rest overnight at 37° C. in a humidified atmosphere with 5% CO2 to allow attachment of the cells to the culture plate. Test compounds were prepared as DMSO stocks (10 mM) and were serially diluted in cell culture media to obtain 2× working solutions. Cell media was discarded and replaced by 50 μL of test compound solutions or cell media with vehicle for control wells. Within 15 minutes, 2× working solution (4 μM) of 1S,3R-RSL3 (CAS #1219810-16-8, Sigma-Aldrich) (diluted from 5 mM DMSO stock in cell culture media) was added. Final reaction volume was 100 μL and final DMSO concentration in reaction was kept below 0.2% (v/v) and equal in all wells. Final RSL3 concentration was 2 μM and test compound final concentrations in reaction were up to 1000 nM. After 24 hours of incubation cell viability was assessed by MTT test. MTT (Sigma-Aldrich) solution 1 mg/mL in 1×PBS (pH=7,4) was prepared 1 hour before the assay and filtered through Filtropur S 0.2 filters (Sarstedt). Cell media with test compounds was discarded and 100 μL of MTT solution was added to cells. The plates were incubated for 2 hours at +37° C. Thereafter, the MTT solution was removed and 100 μL of isopropanol was added to dissolve sediment. Absorption at 570 and 650 nm was measured using Hidex Sense microplate reader.

[6] = test system: Nrf-2 responsive genes; assay: Nrf-2 Activation Assay (Nrf-2 Assay); type: cell-based, human; details: 24 hours; for activation of Nrf-2 responsive genes / pathway, in words: FIG. 7, 1 μM
Protocol: This assay was developed internally and was designed to determine if the novel test compounds disclosed herein active Nrf-2 and thereby promote resolution of inflammation by the mechanism believed to be responsible for the activity of omaveloxolone.
Briefly, GM03665 Eriedreich Ataxia patient fibroblasts were grown in 12 Well Plates (TC Cell+F) (Sarstedt, Nümbrecht Germany), at a density of 12×10^4 cells/per well in DMEM/F12 (Gibco, ThermoFisher Scientific, Waltham, MA, USA) cell media supplemented with 10% FBS and 1% Pen/Strep. Cells were left to rest overnight at 37° C. in a humidified atmosphere with 5% CO2 to allow attachment of the cells to the culture plate. Before continuing assay visual inspection of each well was done by light microscopy to detect any possible bacterial and fungal contamination. […] After incubation, cell media was removed and total RNA from the cells was isolated using E.Z.N.A.® Total RNA Kit I (Omega Bio-tek, Norcross, Georgia, USA) spin columns, and first-strand cDNA synthesis was carried out using a High Capacity cDNA Reverse Transcription Kit (Applied Biosystems™, Foster City, CA) following the manufacturer's instructions. qPCR analysis of gene expression was performed by mixing SYBR® Green Master Mix (Applied Biosystems™) with synthesized cDNA and forward and reverse primers. […] (60 cycles), and 95° C. for 60 seconds, followed by melt curve analysis at 72-95° C., 0.3° C./sec. The relative expression levels for each gene were calculated with the ΔΔCt method and normalized to the expression of REEP5 and SNRPD3 genes.

## CC1=C(C)C(=O)C(CC[C@@](C)(O)CC/C=C(\C)CCC=C(F)F)=C(C)C1=O [Compound L, (S,E)-2-(11,11-difluoro-3-hydroxy-3,7-dimethylundeca-6,10-dien-1-yl)-3,5,6-trimethylcyclohexa-2,5-diene-1,4-dione]
[1]
  protection from BSO induced cell death / ferroptosis, in words: possess both activities; also recorded: able to prevent ferroptotic cell death; also recorded: active
[2]; 1 μM rotenone, 10 μM compound
  Rotenone Oxygraph Assay % Increase (Table 7): 58.6 +/− 15.5%
[3]
  Complex I by-pass activity / restoring ATP production, in words: possess both activities
[4]
  lipoxygenase-15 inhibition, in words: effective inhibitors
[5]
  activity in the RSL3 Assay, in words: active; also recorded: able to prevent ferroptotic cell death
[6]
  activation of Nrf-2 responsive genes / pathway, in words: do not activate

## CC1=C(C)C(=O)C(CC[C@@](C)(O)COCCC[Si](C)(C)C)=C(C)C1=O [Compound M, (R)-2-(3-hydroxy-3-methyl-4-(3-(trimethylsilyl)propoxy)butyl)-3,5,6-trimethylcyclohexa-2,5-diene-1,4-dione]
[1]
  protection from BSO induced cell death / ferroptosis, in words: able to prevent ferroptotic cell death; also recorded: active
[2]; 1 μM rotenone, 10 μM compound
  Rotenone Oxygraph Assay % Increase (Table 7): 56.6 +/− 11.3%
[3]
  Complex I by-pass activity / restoring ATP production, in words: active
[4]
  lipoxygenase-15 inhibition, in words: best result; also recorded: effective inhibitors
[5]
  activity in the RSL3 Assay, in words: active; also recorded: able to prevent ferroptotic cell death
[5]; 2 μM RSL3, 24 hours, MTT, mean of at least three measurements, unit from Table 7, read-out: Mean EC50, RSL3 Assay (Table 3)
  EC50: 41.2 nM
[5]; 2 μM RSL3, 24 hours, MTT, read-out: RSL3 Assay EC50, nM (Table 7)
  EC50: 41.2 nM
[6]; 1 μM compound, qPCR of Nrf-2 responsive genes
  Nrf-2 Assay (Table 7): Inactive
[6]
  activation of Nrf-2 responsive genes / pathway, in words: do not activate

## CC1=C(C)C(=O)C(CC[C@](C)(O)CC/C=C(\C)CCC=C(F)F)=C(C)C1=O [Compound H, (R,E)-2-(11,11-difluoro-3-hydroxy-3,7-dimethylundeca-6,10-dien-1-yl)-3,5,6-trimethylcyclohexa-2,5-diene-1,4-dione]
[1]
  protection from BSO induced cell death / ferroptosis, in words: able to prevent ferroptotic cell death; also recorded: active
[2]; 1 μM rotenone, 10 μM compound
  Rotenone Oxygraph Assay % Increase (Table 7): 54.3 +/− 13%
[4]
  lipoxygenase-15 inhibition, in words: effective inhibitors
[5]
  activity in the RSL3 Assay, in words: active; also recorded: able to prevent ferroptotic cell death
[6]
  activation of Nrf-2 responsive genes / pathway, in words: do not activate

## CC(C)=CCC/C(C)=C/CC/C(C)=C/CC[C@@](C)(O)CCC1=C(C)C(=O)C(C)=C(C)C1=O (stereo in doubt) [Vatiquinone, reference compound]
[1]
  protection from BSO induced cell death / ferroptosis, in words: ability to circumvent BSO induced cell death
[3]
  Complex I by-pass activity / restoring ATP production, in words: not
[5]
  activity in the RSL3 Assay, in words: active

## CC1(C)CC[C@]2(NC(=O)C(C)(F)F)CC[C@]3(C)[C@H](C(=O)C=C4[C@@]5(C)C=C(C#N)C(=O)C(C)(C)[C@@H]5CC[C@]43C)[C@@H]2C1 [Omaveloxolone, reference compound]
[1]
  protection from BSO induced cell death / ferroptosis, in words: ability to circumvent BSO induced cell death; also recorded: displayed anti-ferroptotic activity
[2]
  activity in the Rotenone Oxygraph Assay, in words: inactive
[2]; 1 μM rotenone, 10 μM compound
  Rotenone Oxygraph Assay % Increase (Table 7): Inactive
[2]; 1 μM rotenone, 10 μM compound, change in respiration rate of intact cells
  Percent increase in ATP (Table 4, Rotenone Oxygraph Assay): Inactive
[3]; HepG2, 50 micromolar rotenone, 60 minutes
  Rotenone ATP Assay EC50, nM (Table 7): Inactive
[3]
  Complex I by-pass activity / restoring ATP production, in words: not
[5]
  activity in the RSL3 Assay, in words: completely inactive
[5]; 2 μM RSL3, 24 hours, MTT
  RSL3 Assay EC50, nM (Table 7): Inactive
[5]; 2 μM RSL3, 24 hours, MTT, mean of at least three measurements, unit from Table 7
  Mean EC50, RSL3 Assay (Table 3): Inactive
[6]
  activation of Nrf-2 responsive genes / pathway, in words: positive and does

## Cc1c(C)c2c(c(C)c1O)CC[C@@](C)(CCC=C(F)F)O2 [Compound 67, (R)-2-(4,4-difluorobut-3-en-1-yl)-2,5,7,8-tetramethylchroman-6-ol]
[1]
  protection from BSO induced cell death / ferroptosis, in words: possess both activities
[3]
  Complex I by-pass activity / restoring ATP production, in words: possess both activities

## COC1=C(OC)C(=O)C(CCCCCCCCCCO)=C(C)C1=O [Idebenone, reference compound]
[1]
  protection from BSO induced cell death / ferroptosis, in words: very weakly active/borderline inactive
[2]; 1 μM rotenone, 10 μM compound
  Rotenone Oxygraph Assay % Increase (Table 7): 70.2 +/− 15%
[3]
  Complex I by-pass activity / restoring ATP production, in words: ability to restore ATP production when Complex I is inhibited

Reference: patent US20240400529A1, “COMPOSITIONS AND METHODS FOR THE PREVENTION AND/OR TREATMENT OF MITOCHONDRIAL DISEASE, INCLUDING FRIEDREICH'S ATAXIA” (Stealth BioTherapeutics Inc., priority 2019, published 2024)
